Biological target: T1, GPR40 of human origin (Homo sapiens, UniProt O14842)
T1 construct: expressed in transfected cells
Assay: Agonist action on GPR40 of human origin (Ca2+ fluorescence in CHO cells)
Type: cell-based
Details: CHO cell strain stably expressing GPR40 of human origin; Ca2+ concentration fluctuation, fluorescent calcium indicator
Experimental: A CHO cell strain stably expressing GPR40 of human origin was used to determine the agonist action of a subject compound. This cell strain was seeded in a clear bottom 96 well plate at 4×10^4 cells/100 μL/well. The cell strain was cultured in a CO2 incubator overnight using a Ham's F-12 medium containing a 10% fetal bovine serum, 100 U/mL penicillin, 0.1 mg/mL streptomycin, and 400 μg/mL Geneticin. Calcium 4 Assay Kit (Molecular Devices) was used as a fluorescent calcium indicator. One mL of 77 mg/mL probenecid (Invitrogen) was added to 100 mL of a calcium indicator solution to prepare a solution (loading solution) mixed with a 20 mM HEPES-containing Hanks' balanced salt solution (HBSS) in equal proportions. 200 μL of the loading solution was added to the cells from which the culture solution was removed, and the cells were cultured in a CO2 incubator for 1 hour. The subject compound was diluted with a 20 mM HEPES-containing HBSS and was added to the cells by 50 μL, and the fluctuation of the Ca^2+ concentration was measured by an intracellular ion analyzer. The EC50 value of the subject compound was calculated using the dose-response curve of fluorescence intensity variation.

T1 sequence (O14842 whole entry): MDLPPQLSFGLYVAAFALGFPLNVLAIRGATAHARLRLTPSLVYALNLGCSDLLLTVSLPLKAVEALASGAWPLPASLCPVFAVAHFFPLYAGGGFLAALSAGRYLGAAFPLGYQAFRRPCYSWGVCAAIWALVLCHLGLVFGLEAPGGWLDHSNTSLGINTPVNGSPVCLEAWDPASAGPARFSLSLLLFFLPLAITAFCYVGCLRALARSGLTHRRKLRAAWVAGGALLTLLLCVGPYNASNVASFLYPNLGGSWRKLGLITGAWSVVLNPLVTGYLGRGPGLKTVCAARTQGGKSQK

| EC50 | SMILES |
| --- | --- |
| < 300 nM | Cc1cc(OCCCO)nc(C)c1-c1cccc(COc2ccc(-c3cc(O)n[s+]3[O-])cc2)c1 (centres unmarked) [Example 49, 5-(4-((3-(2,4-dimethyl-6-(3-hydroxypropoxy)pyridin-3-yl)phenyl)methoxy)phenyl)isothiazol-3-ol 1-oxide(A)] |
| < 300 nM | Cc1cc(OCCO)cc(C)c1-c1cccc(COc2ccc(-c3cc(O)n[s+]3[O-])cc2)c1C (centres unmarked) [Example 51, 5-(4-((3-(2,6-dimethyl-4-(2-hydroxyethoxy)phenyl)-2-methylphenyl)methoxy)phenyl)isothiazol-3-ol 1-oxide(A)] |
| 300 to 3000 nM | Cc1nc(OCCO)ccc1-c1cccc(COc2ccc(-c3cc(O)n[s+]3[O-])cc2)c1C (centres unmarked) [Example 52, 5-(4-((3-(2-methyl-6-(2-hydroxyethoxy)pyridin-3-yl)-2-methylphenyl)methoxy)phenyl)isothiazol-3-ol 1-oxide(A)] |
| < 300 nM | Cc1cc(OC[C@H](O)CO)cc(C)c1-c1cccc(COc2ccc(-c3cc(O)n[s+]3[O-])cc2)c1 (stereo partly drawn) [Example 55, 5-(4-((3-(4-((2R)-2,3-dihydroxypropoxy)-2,6-dimethylphenyl)phenyl)methoxy)phenyl)isothiazol-3-ol 1-oxide(A)] |
| < 300 nM | Cc1cc(OC[C@H](O)CO)c(F)c(C)c1-c1cccc(COc2ccc(-c3cc(O)n[s+]3[O-])cc2)c1 (stereo partly drawn) [Example 59, 5-(4-((3-(4-((2R)-2,3-dihydroxypropoxy)-2,6-dimethyl-3-fluorophenyl)phenyl)methoxy)phenyl)isothiazol-3-ol 1-oxide(A)] |
| < 300 nM | [O-][s+]1nc(O)cc1-c1ccc(O[C@@H]2CCc3c(Br)cccc32)cc1 (stereo partly drawn) [Example 66, 5-(4-((1R)-4-bromo-2,3-dihydro-1H-inden-1-yloxy)phenyl)isothiazol-3-ol 1-oxide(A)] |
| 300 to 3000 nM | [O-][s+]1nc(O)cc1-c1ccc(O[C@H]2CCc3c(Br)cccc32)cc1 (stereo partly drawn) [Example 67, 5-(4-((1S)-4-bromo-2,3-dihydro-1H-inden-1-yloxy)phenyl)isothiazol-3-ol 1-oxide(A)] |
| < 300 nM | [O-][s+]1nc(O)cc1-c1ccc(OC2CCc3c(Cl)cccc32)cc1 (centres unmarked) [Example 68, 5-(4-(4-chloro-2,3-dihydro-1H-inden-1-yloxy)phenyl)isothiazol-3-ol 1-oxide(A)] |
| < 300 nM | [O-][s+]1nc(O)cc1-c1ccc(OC2CCc3c2cccc3C(F)(F)F)cc1 (centres unmarked) [Example 69, 5-(4-(4-trifluoromethyl-2,3-dihydro-1H-inden-1-yloxy)phenyl)isothiazol-3-ol 1-oxide(A)] |
| 300 to 3000 nM | CC(=O)NCCCOc1ccc(-c2cccc(COc3ccc(-c4cc(O)n[s+]4[O-])cc3)c2C)c(C)n1 (centres unmarked) [Example 71, N-[3-[5-[3-[[4-(3-hydroxy-1-oxo-isothiazol-5-yl)phenoxy]methyl]-2-methylphenyl]-6-methylpyridin-2-yl]oxypropyl]acetamide(A)] |
| < 300 nM | Cc1cc(OCCCNS(C)(=O)=O)cc(C)c1-c1cccc(COc2ccc(-c3cc(O)n[s+]3[O-])cc2)c1 (centres unmarked) [Example 72, N-[3-[4-[3-[[4-(3-hydroxy-1-oxo-isothiazol-5-yl)phenoxy]methyl]phenyl]-3,5-dimethylphenoxy]propyl]methanesulfonamide(A)] |

| SMILES | EC50 |
| --- | --- |
| Cc1cc(OCC[C@H](C)O)cc(C)c1-c1cccc(COc2ccc(-c3cc(O)n[s+]3[O-])cc2)c1C (stereo partly drawn) [Example 61, 5-(4-((3-(2,6-dimethyl-4-((3S)-3-hydroxybutoxy)phenyl)-2-methylphenyl)methoxy)phenyl)isothiazol-3-ol 1-oxide(A)] | < 300 nM |
| Cc1cc(OCC[C@@H](C)O)cc(C)c1-c1cccc(COc2ccc(-c3cc(O)n[s+]3[O-])cc2)c1 (stereo partly drawn) [Example 63, 5-(4-((3-(2,6-dimethyl-4-((3R)-3-hydroxybutoxy)phenyl)phenyl)methoxy)phenyl)isothiazol-3-ol 1-oxide(A)] | < 300 nM |
| Cc1cc(OCC[C@@H](C)O)cc(C)c1-c1cccc(COc2ccc(-c3cc(O)n[s+]3[O-])cc2)c1C (stereo partly drawn) [Example 64, 5-(4-((3-(2,6-dimethyl-4-((3R)-3-hydroxybutoxy)phenyl)-2-methylphenyl)methoxy)phenyl)isothiazol-3-ol 1-oxide(A)] | < 300 nM |

From patent US8476287B2, “3-hydroxy-5-arylisothiazole derivative” (Mochida Pharmaceutical Co., Ltd., priority 2009, dated 2013)
